In test [1] the target is T1, human CD73 (Homo sapiens, UniProt P21589).
T1 construct: expressed in transfected cells
T1 sequence (P21589 27-549): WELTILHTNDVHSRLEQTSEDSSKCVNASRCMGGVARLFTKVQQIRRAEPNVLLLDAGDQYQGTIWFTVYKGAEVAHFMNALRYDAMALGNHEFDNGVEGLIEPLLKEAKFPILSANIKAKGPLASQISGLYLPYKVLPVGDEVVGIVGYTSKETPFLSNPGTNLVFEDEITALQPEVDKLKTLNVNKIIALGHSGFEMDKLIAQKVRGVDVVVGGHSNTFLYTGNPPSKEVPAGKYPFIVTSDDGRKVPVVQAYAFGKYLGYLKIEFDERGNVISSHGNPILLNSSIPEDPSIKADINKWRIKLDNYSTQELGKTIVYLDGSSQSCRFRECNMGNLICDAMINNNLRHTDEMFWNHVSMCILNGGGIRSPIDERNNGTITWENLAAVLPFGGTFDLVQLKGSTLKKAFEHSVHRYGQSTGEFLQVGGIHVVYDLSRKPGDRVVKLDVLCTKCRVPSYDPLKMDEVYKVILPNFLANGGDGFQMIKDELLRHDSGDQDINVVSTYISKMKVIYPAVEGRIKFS
Briefly: Inhibitor activity against CD73 in cell based assay (CD73 expressing CHO-K1 cells). To be noted: CHO-K1 cells expressing human CD73, 150 μM AMP, 4 hours of incubation; read-out: CHO-K1 CELL VARIANT: CD73 IC50. The procedure, abridged: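 Stably transfected CHO-K1 cells expressing human CD73 (1×10^4/well) incubated 4 h with compound (8-point 1:3 titration, top 10 μM final, 0.2% DMSO) and 150 μM AMP. Residual AMP in supernatant measured by CellTiter-Glo luminescence with 1 μM ATP after 30 min at room temperature; IC50 by nonlinear regression of percent inhibition vs high/low controls.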

For test [2], the target named is T2, Human CD73 (amino acid residues 27-549) (Homo sapiens, UniProt P21589).
T2 construct: Human CD73 (amino acid residues 27-549); His tag (N); made in house; host or cells: E. coli
T2 sequence (P21589 27-549): T1 sequence (P21589 27-549)
Kind of test: CD73 enzymatic assay (luciferase-based indirect assay, CellTiter-Glo). The test is classed as biochemical. Conditions: 0.4 nM CD73, 150 μM AMP, 1 hour at room temperature. The procedure, abridged: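 His-tagged human CD73 (27-549) from E. coli, 0.4 nM, with 150 μM AMP in 50 mM HEPES pH 7.4, 0.01% Tween 20; 1 h at room temperature. AMP remaining read by CellTiter-Glo 2.0 luminescence with 1 μM final ATP after 30 min. IC50 from nonlinear regression of % inhibition.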
A general note: Cellular ATP, detected with luciferase, serves as a proxy for viable cell number.

The structures appear in SMILES notation.

Our source for the IC50 values is patent publication US12509444B2, “Compounds and methods for CD73 modulation and indications therefor” (Plexxikon Inc., priority 2019, dated 2025).

As usually defined, the IC50 is the midpoint of a concentration-inhibition curve. For the molecule `O=C(NC1CCN(C(=O)Cc2ccc(F)cc2)CC1)O[C@@H]1CCN(c2cn[nH]c(=O)c2Cl)C1` [P-0443, (R)-1-(5-chloro-6-oxo-1,6-dihydropyridazin-4-yl)pyrrolidin-3-yl (1-(2-(4-fluorophenyl)acetyl)piperidin-4-yl)carbamate], the IC50 in test [1] and in test [2] was 0.001 to 10 µM each time.
In the case of `O=C(NC1CCN(C(=O)Cc2ccc(Cl)c(F)c2)CC1)O[C@@H]1CCN(c2cn[nH]c(=O)c2Cl)C1` [P-0444, (R)-1-(5-chloro-6-oxo-1,6-dihydropyridazin-4-yl)pyrrolidin-3-yl (1-(2-(4-chloro-3-fluorophenyl)acetyl)piperidin-4-yl)carbamate], the IC50 in test [1] and in test [2] was 0.001 to 10 µM throughout.
With `O=C(NC1CCN(C(=O)Cc2ccc(F)c(Cl)c2)CC1)O[C@@H]1CCN(c2cn[nH]c(=O)c2Cl)C1` [P-0445, (R)-1-(5-chloro-6-oxo-1,6-dihydropyridazin-4-yl)pyrrolidin-3-yl (1-(2-(3-chloro-4-fluorophenyl)acetyl)piperidin-4-yl)carbamate], the concentration for half-maximal inhibition (IC50) in test [1] and in test [2] was 0.001 to 10 µM each time.
Turning to `O=C(NC1CC2CCC2C1)O[C@@H]1CCN(c2cn[nH]c(=O)c2Cl)C1` (stereo partly drawn) [P-0446, (R)-1-(5-chloro-6-oxo-1,6-dihydropyridazin-4-yl)pyrrolidin-3-yl bicyclo[3.2.0]heptan-3-ylcarbamate], the concentration for half-maximal inhibition (IC50) in test [1] and in test [2] was 0.001 to 10 µM throughout.
On to `O=C(N[C@@H]1CCC[C@H]1F)O[C@@H]1CCN(c2cn[nH]c(=O)c2Cl)C1` [P-0447, (R)-1-(5-chloro-6-oxo-1,6-dihydropyridazin-4-yl)pyrrolidin-3-yl ((1R,2R)-2-fluorocyclopentyl)carbamate], for which the half-inhibitory concentration (IC50) in test [1] and in test [2] was 0.001 to 10 µM in each case.
On to `O=C(NC12CCC(F)(CC1)C2)O[C@@H]1CCN(c2cn[nH]c(=O)c2Cl)C1` [P-0448, (R)-1-(5-chloro-6-oxo-1,6-dihydropyridazin-4-yl)pyrrolidin-3-yl (4-fluorobicyclo[2.2.1]heptan-1-yl)carbamate], for which the half-maximal inhibitory concentration (IC50) in test [1] and in test [2] was 0.001 to 10 µM in each case.
As to `O=C(NC1CC2CC2C1)O[C@@H]1CCN(c2cnn(CCO)c(=O)c2Cl)C1` (stereo partly drawn) [P-0449, (R)-1-(5-chloro-1-(2-hydroxyethyl)-6-oxo-1,6-dihydropyridazin-4-yl)pyrrolidin-3-yl bicyclo[3.1.0]hexan-3-ylcarbamate], the half-maximal inhibitory concentration (IC50) in test [1] and in test [2] was 0.001 to 10 µM in each case.
For `CC1CCCC1NC(=O)O[C@@H]1CCN(c2cnn(CCO)c(=O)c2Cl)C1` (stereo partly drawn) [P-0450, (R)-1-(5-chloro-1-(2-hydroxyethyl)-6-oxo-1,6-dihydropyridazin-4-yl)pyrrolidin-3-yl (2-methylcyclopentyl)carbamate], the IC50 in test [1] and in test [2] was 0.001 to 10 µM throughout.
As for `O=C(NC1CC2CCC1O2)O[C@@H]1CCN(c2cnn(CCO)c(=O)c2Cl)C1` (stereo partly drawn) [P-0451, (R)-1-(5-chloro-1-(2-hydroxyethyl)-6-oxo-1,6-dihydropyridazin-4-yl)pyrrolidin-3-yl (7-oxabicyclo[2.2.1]heptan-2-yl)carbamate], the half-inhibitory concentration (IC50) in test [1] and in test [2] was 0.001 to 10 µM throughout.
As to `CC1(NC(=O)O[C@@H]2CCN(c3cnn(CCO)c(=O)c3Cl)C2)CCCC1` [P-0452, (R)-1-(5-chloro-1-(2-hydroxyethyl)-6-oxo-1,6-dihydropyridazin-4-yl)pyrrolidin-3-yl (1-methylcyclopentyl)carbamate], the IC50 in test [1] and in test [2] was 0.001 to 10 µM throughout.
Regarding `O=C(NC1CC2C(C1)C2(F)F)O[C@@H]1CCN(c2cnn(CCO)c(=O)c2Cl)C1` (stereo partly drawn) [P-0453, (R)-1-(5-chloro-1-(2-hydroxyethyl)-6-oxo-1,6-dihydropyridazin-4-yl)pyrrolidin-3-yl (6,6-difluorobicyclo[3.1.0]hexan-3-yl)carbamate], the 50% inhibitory concentration (IC50) in test [1] and in test [2] was 0.001 to 10 µM throughout.
As for `O=C(N[C@@H]1CCC(F)(F)C1)O[C@@H]1CCN(c2cn[nH]c(=O)c2Cl)C1` [P-0454, (R)-1-(5-chloro-6-oxo-1,6-dihydropyridazin-4-yl)pyrrolidin-3-yl ((R)-3,3-difluorocyclopentyl)carbamate], the IC50 in test [1] and in test [2] was 0.001 to 10 µM throughout.
Regarding `O=C(N[C@H]1CCC[C@H]1O)O[C@@H]1CCN(c2cn[nH]c(=O)c2Cl)C1` [P-0455, (R)-1-(5-chloro-6-oxo-1,6-dihydropyridazin-4-yl)pyrrolidin-3-yl ((1S,2R)-2-hydroxycyclopentyl)carbamate], the figures for the 50% inhibitory concentration (IC50) in test [1] and in test [2] were 10 to 100 µM and 0.001 to 10 µM, respectively.
On the same counts, the results for `CCOC(=O)[C@@H]1CCC[C@H]1NC(=O)O[C@@H]1CCN(c2cn[nH]c(=O)c2Cl)C1` [P-0456, ethyl (1R,2R)-2-(((((R)-1-(5-chloro-6-oxo-1,6-dihydropyridazin-4-yl)pyrrolidin-3-yl)oxy)carbonyl)amino) cyclopentane-1-carboxylate] are 0.001 to 10 µM and 0.001 to 10 µM.
Taken in the same sequence, the figures for `O=C(N[C@@H]1CC[C@@H](O)C1)O[C@@H]1CCN(c2cn[nH]c(=O)c2Cl)C1` [P-0457, (R)-1-(5-chloro-6-oxo-1,6-dihydropyridazin-4-yl)pyrrolidin-3-yl ((1R,3R)-3-hydroxycyclopentyl)carbamate] were 0.001 to 10 µM and 0.001 to 10 µM.
For `O=C(N[C@H]1CC[C@H](O)C1)O[C@@H]1CCN(c2cn[nH]c(=O)c2Cl)C1` [P-0458, (R)-1-(5-chloro-6-oxo-1,6-dihydropyridazin-4-yl)pyrrolidin-3-yl ((1S,3S)-3-hydroxycyclopentyl)carbamate], the concentration for half-maximal inhibition (IC50) in test [1] and in test [2] was 0.001 to 10 µM in each case.
Turning to `O=C(N[C@H]1CC[C@@H](O)C1)O[C@@H]1CCN(c2cn[nH]c(=O)c2Cl)C1` [P-0459, (R)-1-(5-chloro-6-oxo-1,6-dihydropyridazin-4-yl)pyrrolidin-3-yl ((1S,3R)-3-hydroxycyclopentyl)carbamate], the IC50 in test [1] and in test [2] was 0.001 to 10 µM each time.
For the molecule `O=C(N[C@@H]1CC[C@H](O)C1)O[C@@H]1CCN(c2cn[nH]c(=O)c2Cl)C1` [P-0460, (R)-1-(5-chloro-6-oxo-1,6-dihydropyridazin-4-yl)pyrrolidin-3-yl ((1R,3S)-3-hydroxycyclopentyl)carbamate], the IC50 in test [1] and in test [2] was 0.001 to 10 µM each time.
With `O=C(NC1CCCC1=O)O[C@@H]1CCN(c2cn[nH]c(=O)c2Cl)C1` (stereo partly drawn) [P-0461, (R)-1-(5-chloro-6-oxo-1,6-dihydropyridazin-4-yl)pyrrolidin-3-yl (2-oxocyclopentyl)carbamate], the IC50 in test [1] and in test [2] was 0.001 to 10 µM throughout.
`O=C(NC1CCCC1)O[C@H]1CN(c2cn[nH]c(=O)c2Cl)C[C@@H]1F` [P-0462, (3S,4S)-1-(5-chloro-6-oxo-1,6-dihydropyridazin-4-yl)-4-fluoropyrrolidin-3-yl cyclopentylcarbamate]: the IC50 in test [1] and in test [2] was 0.001 to 10 µM in each case.
On to `O=C(NC1CCC(F)(F)CC1)O[C@H]1CN(c2cn[nH]c(=O)c2Cl)C[C@@H]1F` [P-0463, (3S,4S)-1-(5-chloro-6-oxo-1,6-dihydropyridazin-4-yl)-4-fluoropyrrolidin-3-yl (4,4-difluorocyclohexyl)carbamate], for which the concentration for half-maximal inhibition (IC50) in test [1] and in test [2] was 0.001 to 10 µM each time.
For the molecule `O=C(NC1CCN(C(=O)C2(c3ccccc3)CC2)CC1)O[C@@H]1CCN(c2cn[nH]c(=O)c2Cl)C1` [P-0464, (R)-1-(5-chloro-6-oxo-1,6-dihydropyridazin-4-yl)pyrrolidin-3-yl (1-(1-phenylcyclopropane-1-carbonyl)piperidin-4-yl)carbamate], the IC50 in test [1] and in test [2] was 0.001 to 10 µM throughout.
Take `O=C(NC1CCN(C(=O)C2(c3cccc(Br)c3)CC2)CC1)O[C@@H]1CCN(c2cn[nH]c(=O)c2Cl)C1` [P-0465, (R)-1-(5-chloro-6-oxo-1,6-dihydropyridazin-4-yl)pyrrolidin-3-yl (1-(1-(3-bromophenyl)cyclopropane-1-carbonyl)piperidin-4-yl)carbamate]: the IC50 in test [1] and in test [2] was 0.001 to 10 µM in each case.
On to `Cc1noc(C)c1CC(=O)N1CCC(NC(=O)O[C@@H]2CCN(c3cn[nH]c(=O)c3Cl)C2)CC1` [P-0466, (R)-1-(5-chloro-6-oxo-1,6-dihydropyridazin-4-yl)pyrrolidin-3-yl (1-(2-(3,5-dimethylisoxazol-4-yl)acetyl)piperidin-4-yl)carbamate], for which the IC50 in test [1] and in test [2] was 0.001 to 10 µM each time.
